As a reminder, the TGI is the concentration at which net growth stops. Lower therefore signals greater sensitivity of the cells. What is called GI50 is the concentration that inhibits growth by half.

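Method: 48-hour compound exposure of cells in 96-well plates, five concentrations, linear interpolation of endpoints. The concentration for 50% growth inhibition is given as GI50. TGI: concentration producing complete growth inhibition.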

This note sets out measurements from PubChem BioAssay (NCI).

What all share (assay): DTP human tumour cell line panel, 48 h
Test [1] has as its system CCRF-CEM leukemia.
Test [2] has as its system PC-3 prostate.
The test system of test [3] is SW-620 colon.
In test [4] the test system is SF-295 CNS.
For test [5], the system named is NCI-H522 lung.
The test system of test [6] is RPMI-8226 leukemia.
In test [7] the test system is SN12C renal.
Test [8] relates to SK-OV-3 ovarian.
The subject of test [9] is NCI/ADR-RES ovarian.
The test system of test [10] is UACC-62 melanoma.

On to `COc1cc(OC)c(OC)cc1/C=C1\C=Cc2ccccc21`, for which the total growth inhibition concentration (TGI) was greater than 100 µM in [1]; greater than 100 µM in test [2]; 35.4 µM in [3]; 57.6 µM in test [4]; 51.2 µM in test [5]; greater than 100 µM in test [6]. In addition, the TGI is 36.7 µM in [7], 59.8 µM in test [8] and greater than 100 µM in test [9].
`CC12CCc3ccccc3C1=Nc1ccccc12` (stereo not given): the concentration for total growth inhibition (TGI) in [1] was 47.3 µM; in [2], greater than 100 µM; in test [3], greater than 100 µM; in test [4], greater than 100 µM; in test [10] it was greater than 100 µM; in test [5], greater than 100 µM. Besides, the values for the TGI in test [7], in [8] and in [9] were 43.7 µM, greater than 100 µM and 64.6 µM, respectively.
In the case of `COc1cc(-c2nc(SCC(=O)Nc3ccc(C(C)=O)cc3)[nH]c(=O)c2C#N)cc(OC)c1OC`, the GI50 was 31.6 µM in test [1]; 36.4 µM in [2]; 46.7 µM in test [3]; 43 µM in [4]; 28 µM in test [10]; 29.9 µM in [6]. Moreover, the GI50 was 70.2 µM in [7], 38.6 µM in test [8] and greater than 100 µM in [9]. In addition, the TGI in [1], in [2], in test [3], in test [4], in [10] and in test [6] was greater than 100 µM in each case. Further, the TGI in test [7], in test [8] and in test [9] was greater than 100 µM throughout.
As for `CCOC(=O)c1c(C)n(CC(C)C)c2c1cc1oc(=O)c(=O)n3cnc2c13`, the GI50 in [2] was 24.6 µM; in [3], 1.79 µM; in test [4], 12.8 µM; in test [10] it was 9.44 µM; in [5] it was greater than 50 µM; in test [6], 15.8 µM. Besides, the GI50 in [7] was 10.7 µM; in test [8] it was 20.4 µM; in test [9], 11.6 µM. For the same compound, the TGI in test [2] is greater than 50 µM; in test [3] it was 10.6 µM; in test [4] it was 33 µM; in test [10], 21.6 µM; in test [5], greater than 50 µM; in test [6] it was 37.2 µM. For the same compound, the concentration for total growth inhibition (TGI) is 22.9 µM in [7], greater than 50 µM in test [8] and 38 µM in [9].
In the case of `Cc1[nH]nc2c1N=C(c1ccccc1F)c1cc(C#N)ccc1N2`, the GI50 is 0.113 µM in [1]; 4.93 µM in test [2]; 0.207 µM in test [4]; 3.04 µM in test [10]; 3.72 µM in test [5]; 7.4 µM in [6]. The GI50 in [7] is 3.87 µM; in test [8] it was 0.889 µM; in test [9], 4.72 µM. Also, the TGI was greater than 13.6 µM in [1]; greater than 25 µM in [2]; 15.9 µM in test [4]; 7.37 µM in test [10]; 11.1 µM in [5]; 19.5 µM in [6]. For the same compound, the TGI is 15.1 µM in test [7], greater than 17 µM in test [8] and greater than 25 µM in [9].
With `O=C(NCCN1CCOCC1)Nc1ccc(-c2cc3c(Nc4ccc(Oc5cccc(C(F)(F)F)c5)c(Cl)c4)ncnc3s2)cc1`, the GI50 was 1.41 µM in test [2]; 1.01 µM in [3]; 0.936 µM in [4]; 1 µM in test [10]; 0.91 µM in test [5]; 1.4 µM in [6]. Moreover, the GI50 in test [7] is 1.97 µM; in [8], 1.88 µM; in test [9], 6.74 µM. In addition, the TGI was 5.6 µM in test [2]; 2.06 µM in [3]; 2 µM in test [4]; 2.27 µM in test [10]; 2.26 µM in [5]; 3.54 µM in test [6]. Moreover, the TGI in test [7] stood at 8.21 µM; in test [8], 7.49 µM; in test [9], 19.9 µM.
Consider `COC(=O)[C@@H](Cc1c[nH]c2ccccc12)NC(=O)/C=C/c1ccccc1`, for which the GI50 in test [1] was 3.45 µM; in test [2] it was 3.22 µM; in test [3] it was 4.07 µM; in test [10], 3.97 µM; in test [5], 1.81 µM; in test [6] it was 3.48 µM. Besides, the GI50 in [7] was 4.49 µM; in [8], 3.15 µM; in test [9] it was 2.53 µM. For the same compound, the TGI in [1] is greater than 100 µM; in test [2], 68.2 µM; in test [3] it was greater than 100 µM; in test [10], greater than 100 µM; in [5], 30.5 µM; in [6] it was 33.7 µM. The TGI in test [7], in [8] and in test [9] was greater than 100 µM each time.
With `O=C(O)C(Br)C(Br)c1ccccc1[N+](=O)[O-]` (stereo not given), the TGI in test [2], in test [3], in [4], in [10], in test [5] and in test [6] was greater than 100 µM throughout. In addition, the TGI in test [7], in test [8] and in test [9] was greater than 100 µM in each case.
On to `CCOC(=O)c1cc2cc(NC(=O)c3cc4cc([N+](=O)[O-])ccc4n3C)ccc2n1C`, for which the GI50 in test [1] was 7.94 µM; in test [2] it was 22.6 µM; in test [3], 93.5 µM; in test [4], 30.1 µM; in test [10], 12.3 µM; in [5], greater than 100 µM. For the same compound, the GI50 was 49.7 µM in test [6], 16.3 µM in test [7] and 16.8 µM in test [9]. The TGI is greater than 100 µM in [1]; 52.9 µM in test [2]; greater than 100 µM in [3]; greater than 100 µM in [4]; 27.1 µM in [10]; greater than 100 µM in [5]. In addition, the TGI in test [6] is greater than 100 µM; in [7] it was 46.5 µM; in test [9], 45.3 µM.
